Assay results published in patent US20090098529A1 (priority 2006, published 2009).
Where two headings read alike, the source gives them in different places.

Tests used:
Settings in all cases: mouse, in vivo
[1] = tested on: PANC-1 tumors; set-up: species or system nude mice
[2] = tested on: A549 tumors; set-up: species or system nude mice
[3] = tested on: PANC-1 tumors; set-up: species or system nude mice; remark: listed apart in the source
[4] = tested on: GI-101A tumors

SMILES: N.N.[Cl][Pt][Cl] [Cisplatin, cis-diamminedichloroplatinum]
- Effect on tumor growth [1]: unable to arrest tumor growth

SMILES: Nc1ccn([C@@H]2O[C@H](CO)[C@@H](O)C2(F)F)c(=O)n1 [Gemcitabine]
- Effect on tumor growth [2]: actually increased tumor growth
- Effect on tumor growth [3]: moderately decreased tumor growth

SMILES: Nc1ccn(C[C@@H](CO)OCP(=O)(O)O)c(=O)n1 [cidofovir]
- Interference with tumor therapy by the virus [4]: did not significantly interfere with tumor therapy by the virus
- Survival time of GLV-1h74 injected mice [4]: significantly extended the survival time
